Measured values from patent US12448393B2, “Use of novel compound, for preventing, improving or treating amyotrophic lateral sclerosis” (PRG S&TECH INC., priority 2019, dated 2025).
Entries after “also recorded” stand apart in the source; their conditions may differ.

Key:
[1] = tested on: SOD1; assay: Western blot / native gel analysis of SOD1 aggregation; assay type: cell-based, human; conditions: Table 1; effect on SOD1 aggregation, native / non-SDS-PAGE gel
Method: Using RIPA buffer (50 mM Tris-Cl, pH 7.5, 150 mM NaCl, 1% NP-40, 0.1% SDS and […]) for SDS-PAGE and lysis buffer (50 mM Tris-Cl, pH 7.5, 150 mM NaCl, 0.3% NP-40) for Native-PAGE, proteins were extracted from cells. Samples were separated by the SDS-PAGE or the Native-PAGE and transferred to PVDF membrane. Blotted membrane was blocked with TBST buffer including 3% skim milk for 1 hour, and reacted with specific antibodies. The reacted antibodies were detected by ECL and X-ray film exposure. Antibodies used in the present disclosure are as follows: pan-SOD1 (GTX100554) was purchased from Genetex (California, USA). Misfolded SOD1-specific antibody (B8H10) was purchased from MediMabs (Montreal, Canada). Actin (sc-1616), GST (sc-138), and GFP (Green fluorescent protein; sc-8036) were purchased from Santa Cruz biotechnology (Santa Cruz, CA, USA). TDP-43 antibody (10782-2-AP) was purchased from Proteintech (Rosemont, IL, USA). Anti-FLAG (Sigma; F3165) was purchased from Sigma Aldrich (St, Louis, Mo, USA), and HRP-conjugated goat anti-mouse, goat anti-rabbit, and mouse anti-goat antibodies (Pierce, Thermo Fisher Scientific, Inc., Rockford, IL, USA) were used as secondary antibodies.
(§1) GFP-SOD1 (WT, G85R, G93A), non-tagged SOD1 (WT, A4V, G37R, G85R, G93A) and tdTomato-TDP43 expression vectors were purchased from Addgene (Cambridge, MA, USA). Transfection was performed using Jet-PEI reagent (JetPEI; Polyplus transfection, New York, NY, USA) according to the manufacturer's protocol. Briefly, vectors were mixed with JetPEI reagent in 150 mM NaCl buffer, and then mixture was reacted for 15 minutes. The mixture was added to cells in serum-free medium and reacted for 4 hours. After reaction, the cells were replaced with a culture medium supplemented with 10% FBS.

[2] = tested on: normal human fibroblasts; assay: Cell viability measurement (MTT), normal fibroblasts; assay type: cell-based; conditions: for cytotoxic effect in normal fibroblasts: MTT, FIG. 4E, FIG. 9B; for Toxicity (MTT): Table 1, cell type not given, neurons (FIG. 9A) and normal fibroblasts (FIG. 9B)
Method: (§2) HEK293 cells were purchased from American Type Culture Collection (ATCC, Manassas, VA, USA) and maintained at 37° C. and 5% CO2 in DMEM liquid medium including 10% fetal bovine serum and 1% penicillin-streptomycin. SK—N—SH cells were purchased from Korean Cell Line Bank (KCLB, Seoul, South Korea) and maintained in MEM medium including 10% fetal bovine serum, 1% antibiotic, 25 mM HEPES, and 300 mg/L L-Glu. Human fibroblasts (person) were purchased from Coriell Cell Repositories (New Jersey, USA) and maintained in EMEM including 15% FBS, 2 mM Glutamine, and 26 mM HEPES without antibiotics. Thapsigargin (ER calcium scavenger: CAS 67526-95-8) was purchased from Calbiochem (Darmstadt, Germany). CoCl2 (hypoxia-inducer: C8661) was purchased from Sigma Aldrich (St, Louis, Mo, USA).
(§3) To check cells viability, the cells were reacted with 0.5 mg/ml MTT solution (475989; Merck, Darmstadt, Germany) at 37° C. for 4 hours. After removing residual solution and washing with PBS, precipitate was dissolved in 200 μl DMSO, and quantified by measuring absorbance at 540 nm.

[3] = Pharmacokinetics (PK) analysis; assay type: in vivo; conditions: for PK study BA: Table 1
[4] = tested on: SOD1^G93A-Tg mice; assay: In vivo drug treatment of ALS model mice (grip strength, behaviour, histology, survival); parameters: species or system mouse; conditions: for effects in ALS model mice: FIGS. 11A and 11B, summary statements; for In vivo: Table 1, ALS model mice
Method: An experiment was performed in a facility approved by the Association for Laboratory Animal Care Assessment and Accreditation in accordance with the animal policy approved by Busan National University. B6SJL-Tg (SOD1^G93A) mice were purchased from Jackson Laboratory (Stock No: 002726). All mice were maintained under temperature and light-controlled conditions (20˜23° C., light-dark cycle 12 hr-12 hr) and were provided with sterile food and water.
Vehicle (DMSO) and SLC-B036 (10 mg/kg, 20 mg/kg) were administered to 12-week-old or 14-week-old SOD1^G93A mice via intraperitoneal injection twice weekly for 6 weeks. Control mice were treated under the same conditions. For histological analysis, mice were sacrificed at 18 weeks. After dissection of mice, spinal cord was fixed with 4% paraformaldehyde for 48 hours according to basic tissue processing procedures, and embedded in a paraffin block. An embedded tissue (cervical region of the spinal cord) was cut into 5 μm with a Leica microtome, and transferred to an adhesive-coated slide (Marienfeld laboratory glassware, Germany). After deparaffinization and rehydration, the slide was stained with hematoxylin and eosin to determine the number of spinal nerves.
For behavioral experiment, grip strength was checked every 2 weeks using a grip strength meter. The mice were allowed to grasp a tension bar with their forelimbs, and then their tails were slowly pulled until they released the bar. To observe motility, respiration, and quadriplegia of the mice, image analysis was performed at the end of administration (18-20 weeks).

[5] = tested on: neurons; assay: Cell viability measurement (MTT), neurons; assay type: cell-based; conditions: FIG. 9A
Method: as §2, §3

[6] = tested on: SOD1; assay: Immunofluorescence staining of SOD1 aggregation and misfolded SOD1; assay type: cell-based, human; conditions: Table 1; IF staining of SOD1
Method: Cells on coverslip were washed with PBS, fixed with 4% PFA at room temperature for 30 minutes, and then infiltrated with 0.1% Triton X-100/PBS for 10 minutes. The cells were treated with blocking solution (anti-Human Antibody 1:500 dilution in PBS) for 1 hour, and then cells were reacted with anti-pan SOD1 (1:400 dilution), misfolded SOD1 (B8H10; 1:200 dilution in blocking solution) at 4° C. overnight. Finally, the cells were reacted with FITC and rhodamine-conjugated secondary antibody at 4° C. for 6 hours. Nuclei were stained with 4,6-diamidino-2-phenylindole (DAPI), and endoplasmic reticula (ERs) were stained with ER-Tracker Red dye for 10 minutes. The cells were washed 3 times with PBS, and then coverslips were mounted with mounting solution [H-5501; Vector Laboratories (Burlingame, CA, USA)] and analyzed by fluorescence microscopy (Zeiss).
as §1

[7] = tested on: WT-SOD1 and mutant SOD1-GST (A4V, G37R, G85R, G93A); assay: ELISA compound screening for binding inhibitor between WT-SOD1 and mutant SOD1; parameters: species or system human; conditions: Table 1; compounds at final concentration of 50 μM
Method: For compound screening, the present inventors applied an ELISA assay system. To select a binding inhibitor between WT-SOD1 and mutant SOD1, the present inventors used 0.5% paraformaldehyde (PFA) to fix WT-SOD1 recombinant protein on a 96-well plate. The plate was dried, washed with phosphate-buffered saline (PBS), and reacted with the compounds at a final concentration of 50 μM, and then mutant SOD1-GST (A4V, G37R, G85R, G93A) proteins were added. After 2 hours of reaction, the 96-well plate was washed with PBS and blocked with 3% skim milk to prevent non specific reaction. The plate was reacted with anti-GST antibody (diluted at 1:10,000) for 1 hour, and then reacted with anti-mouse IgG-HRP (diluted at 1:50,000) for 1 hour. After washing twice, the plate was reacted with a 3,3′,5,5′-tetramethylbenzidine (TMB) solution (Calbiochem) for 30 minutes and a stop solution (1N H2SO4) for 30 minutes. Finally, the present inventors analyzed values using an ELISA reader (450 nm absorbance). Negative control (−; red line) was reacted without mutant SOD1, and positive control (+; blue line) was reacted with mutant SOD1 without the compounds.
To prepare recombinant proteins, human SOD1 (WT, A4V, G37R, G85R, G93A) was added to EcoRI and HindIII sites of pGEX-TEV vector, an improved vector made by adding a TEV protease cleavage site to pGEX-4T1 (Invitrogen). The recombinant proteins were expressed as GST-fusion proteins in Escherichia coli (E. coli) strain BL21 (DE3). The proteins were purified by glutathione-affinity chromatography.

PK profile ([3]; FIG. 10) | PK study BA [3] | ELISA [7] | SMILES | Western Blot [1] | cytotoxic effect in normal fibroblasts [2] | Toxicity (MTT) [2] | effects in ALS model mice [4] | In vivo [4] | cytotoxicity in neurons [5] | Immuno-fluorscence [6]
appropriate PK profile | 60.7% | Effect ○ | COc1cc(/C=C/CO[C@H]2Cc3cc4ccc(=O)oc4cc3OC2(C)C)ccc1[N+](=O)[O-] [PRG-A-04, (S,E)-7-((3-(3-methoxy-4-nitrophenyl)allyl)oxy)-8,8-dimethyl-7,8-dihydro-2H,6H-pyrano[3,2-g]chromen-2-one] | Effect ○ | did not exhibit cytotoxicity | No | Excellent effects; also recorded: good effects | Effect ○ | did not exhibit cytotoxicity | Effect ○
– | (0.3%) | Effect ○ | COc1cc(/C=C/CO[C@H]2Cc3cc4ccc(=O)oc4cc3OC2(C)C)ccc1O [PRG-A-02, (S,E)-7-((3-(4-hydroxy-3-methoxyphenyl)allyl)oxy)-8,8-dimethyl-7,8-dihydro-2H,6H-pyrano[3,2-g]chromen-2-one] | Effect ○ | did not exhibit cytotoxicity | No | good effects | Effect ○ | did not exhibit cytotoxicity | Effect ○
– | (3.7%) | Effect ○ | CC1(C)Oc2cc3oc(=O)ccc3cc2C[C@@H]1OC(=O)/C=C/c1ccc(F)cc1 [PRG-A-03, (S)-8,8-dimethyl-2-oxo-7,8-dihydro-2H,6H-pyrano[3,2-g]chromen-7-yl (E)-3-(4-fluorophenyl) acrylate] | Effect ○ | did not exhibit cytotoxicity | No | good effects | Effect ○ | did not exhibit cytotoxicity | Effect ○
